The values below come from patent US7622492B2, “Pyrazolones as inhibitors of 11β-hydroxysteroid dehydrogenase” (Hoffmann-La Roche Inc., priority 2005, dated 2009).

For one experiment, the target named is T1, human 11betaHSD1 (Homo sapiens, UniProt P28845).
T1 construct: HEK-293 cells stably transfected with full-length human 11betaHSD1 cDNA; expressed in transfected cells; host or cells: HEK-293
Description: Cell-based assay: HEK-293 cells stably transfected with human 11betaHSD1, cortisol by competitive ELISA. As to conditions: HEK-293 cells stably transfected with full-length human 11betaHSD1 cDNA, cortisone 100 nM, 1 hour. How it is done:
The following day, serially diluted 11bHSD1 inhibitor compounds dissolved in DMSO were added to plating media supplemented with BSA (2 mg/ml final). The final DMSO concentration was 1%. Media was aspirated from plates, and compounds in media were added to each well. The plates were incubated at 37° C. for 1 hour to allow for cellular uptake of compounds. 10 μL of substrate (cortisone) was then added to each well (100 nM final concentration) and incubated for 1 hour at 37° C. Plates were then transferred to ice and 80 μL of media transferred to a 96-well plate and stored at −30° C.
Plates were washed with PBS, 0.1% Tween-20, then washed with PBS alone. Plates were blocked with Blocking Buffer (Tropix Cat# AI075) for 2 hours at room temperature. The plates were then washed as previously described. Assay samples were thawed, diluted 1:4 in DMEM, 2 mg/mL BSA, 1% DMSO, and 24 μL was transferred to wells of a pre-coated 384-well plate, as well as varying amounts of cortisol standard. To each well, 12 μL of cortisol-conjugate and 12 μL of anti-cortisol EIA antibody were added and incubated 2 hrs at room temperature on a orbital plate shaker. The wells were then emptied by inversion, then washed three times with 100 μL of Wash Buffer (Tropix), and then 2 times with 100 μL of Assay Buffer (Tropix). 60 μL of CDP-STAR (Tropix) was added to each well and incubated 10 minutes at room temperature. Chemiluminescence was measured using a Victor V Reader (Perkin Elmer). Cortisol in each sample was interpolated from a standard curve generated with known amounts of cortisol. IC50 values were calculated using the curve fitting software XLFit3 (IDBS).
(In general: An ELISA detects its analyte on a solid surface through an enzyme-linked reagent.)

The target of the next experiment is human HSD1 (Homo sapiens, UniProt P28845). As to the kind of experiment: In vitro inhibition of purified human HSD1 (time-resolved fluorescence cortisol detection). In kind it is biochemical. As to conditions: purified human HSD1, cortisone substrate, 30 min; read-out: hHSD1 IC50. As for the experimental part: Purified human HSD1 was diluted in 50 mM Tris-HCl, 100 mM NaCl, 0.1 mg/ml BSA, 0.02% Lubrol, 20 mM MgCl2, 10 mM glucose 6-phosphate, 0.4 mM NADPH, 60 U/ml glucose 6-phosphate dehydrogenase to a concentration of 1.5 μg/ml (Enzyme Solution). […] Testing compounds (40 μM) in DMSO was diluted 3 fold in series in DMSO and further diluted 20 fold in Substrate Solution. Enzyme Solution (10 μl/well) was added into 384 well microtiter plates followed by diluted compound solutions (10 μl/well) and mixed well. Samples were then incubated at […] for 30 min. EDTA/biotin-cortisol solution (10 μl/well) in 28 mM EDTA, […], 50 mM Tris-HCl, 100 mM NaCl was then added followed by 5 ul/well of anti-cortisol antibody (3.2 μg/ml) in 50 mM Tris-HCl, 100 mM NaCl, 0.1 mg/ml BSA and the solution was incubated at 37 degrees for 30 min. […] Signals were quantitated by reading time-resolved fluorescence on a Victor 5 reader (Wallac).

One may read the IC50 as the concentration that gives 50% inhibition.

T1 sequence (P28845 whole entry): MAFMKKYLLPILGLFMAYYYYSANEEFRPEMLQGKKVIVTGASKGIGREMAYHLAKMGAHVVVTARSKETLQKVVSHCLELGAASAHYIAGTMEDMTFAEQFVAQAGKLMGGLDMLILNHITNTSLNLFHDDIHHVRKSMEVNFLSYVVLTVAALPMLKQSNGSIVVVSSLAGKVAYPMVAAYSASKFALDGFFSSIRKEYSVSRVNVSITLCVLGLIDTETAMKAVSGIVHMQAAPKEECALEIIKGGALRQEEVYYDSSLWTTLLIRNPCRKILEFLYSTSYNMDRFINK
Sequence of human HSD1 (P28845 whole entry): as above

`Cn1c2c(c(=O)n1-c1ccccc1F)[C@H]1CC[C@]2(C)C1(C)C` [Example 12, (4S,7R)-2-(2-Fluoro-phenyl)-1,7,8,8-tetramethyl-1,2,4,5,6,7-hexahydro-4,7-methano-indazol-3-one]: the IC50 on human 11betaHSD1 came out at 19 nM; at human HSD1, 291 nM.

With `Cn1c2c(c(=O)n1-c1ccc(F)cc1)[C@H]1CC[C@]2(C)C1(C)C` [Example 17, (4S,7R)-2-(4-Fluoro-phenyl)-1,7,8,8-tetramethyl-1,2,4,5,6,7-hexahydro-4,7-methano-indazol-3-one], the IC50 on human 11betaHSD1 is 110 nM; on human HSD1, 1720 nM. On the same counts, the results for `Cc1cccc(-n2c(=O)c3c(n2C)[C@]2(C)CC[C@H]3C2(C)C)c1C` [Example 21, (4S,7R)-2-(2,3-Dimethyl-phenyl)-1,7,8,8-tetramethyl-1,2,4,5,6,7-hexahydro-4,7-methano-indazol-3-one] are 19 nM and 10 nM. As for `Cn1c2c(c(=O)n1Cc1cccc(F)c1)[C@H]1CC[C@]2(C)C1(C)C` [Example 32, (4S,7R)-2-(3-Fluoro-benzyl)-1,7,8,8-tetramethyl-1,2,4,5,6,7-hexahydro-4,7-methano-indazol-3-one], the IC50 came to 60 nM on human 11betaHSD1 and 23 nM at human HSD1.

With `COc1cccc(Cn2c(=O)c3c(n2C)[C@]2(C)CC[C@H]3C2(C)C)c1` [Example 34, (4S,7R)-2-(3-Methoxy-benzyl)-1,7,8,8-tetramethyl-1,2,4,5,6,7-hexahydro-4,7-methano-indazol-3-one], the 50% inhibitory concentration (IC50) on human 11betaHSD1 came out at 134 nM; on human HSD1, 472 nM. Take `Cn1c2c(c(=O)n1Cc1ccc(F)cc1C(F)(F)F)[C@H]1CC[C@]2(C)C1(C)C` [Example 37, (4S,7R)-2-(4-Fluoro-2-trifluoromethyl-benzyl)-1,7,8,8-tetramethyl-1,2,4,5,6,7-hexahydro-4,7-methano-indazol-3-one]: the IC50 at human 11betaHSD1 was 27 nM. Turning to `Cn1c2c(c(=O)n1Cc1ccc(C(N)=O)cc1)[C@H]1CC[C@]2(C)C1(C)C` [Example 39, (4S,7R)-4-(1,7,8,8-Tetramethyl-3-oxo-1,3,4,5,6,7-hexahydro-4,7-methano-indazol-2-ylmethyl)-benzamide], the IC50 on human 11betaHSD1 was 243 nM; on human HSD1, 101 nM. As to `CC1(C)[C@@H]2CC[C@@]1(C)c1c2c(=O)n(-c2ccccc2)n1CCc1ccccc1` [Example 66, (4S,7R)-7,8,8-Trimethyl-1-phenethyl-2-phenyl-1,2,4,5,6,7-hexahydro-4,7-methano-indazol-3-one], on human 11betaHSD1, the 50% inhibitory concentration (IC50) is 19 nM.

In turn, `CC(C)c1cccc(-n2c(=O)c3c(n2C)[C@]2(C)CC[C@H]3C2(C)C)c1` [Example 75, (4S,7R)-2-(3-Isopropyl-phenyl)-1,7,8,8-tetramethyl-1,2,4,5,6,7-hexahydro-4,7-methano-indazol-3-one] gave an IC50 at human 11betaHSD1 of 17 nM. The same measure, in the same setting: then `Cn1c2c(c(=O)n1-c1ccc(O)cc1)[C@H]1CC[C@]2(C)C1(C)C` [Example 76, (4S,7R)-2-(4-Hydroxy-phenyl)-1,7,8,8-tetramethyl-1,2,4,5,6,7-hexahydro-4,7-methano-indazol-3-one], with 20 nM; and `CC(C)CCn1c2c(c(=O)n1-c1ccc(F)cc1F)[C@H]1CC[C@]2(C)C1(C)C` [Example 87, (4S,7R)-2-(2,4-Difluoro-phenyl)-7,8,8-trimethyl-1-(3-methyl-butyl)-1,2,4,5,6,7-hexahydro-4,7-methano-indazol-3-one], with 14 nM.

For `CC(C)(C)c1ccc(Cn2c3c(c(=O)n2-c2ccc(F)cc2F)[C@H]2CC[C@]3(C)C2(C)C)cc1` [Example 98, (4S,7R)-1-(4-tert-Butyl-benzyl)-2-(2,4-difluoro-phenyl)-7,8,8-trimethyl-1,2,4,5,6,7-hexahydro-4,7-methano-indazol-3-one], the IC50 on human 11betaHSD1 turned out to be 28 nM. Same read-out and setting: then `COc1ccc(Cn2c3c(c(=O)n2-c2ccc(F)cc2F)[C@H]2CC[C@]3(C)C2(C)C)cc1` [Example 99, (4S,7R)-2-(2,4-Difluoro-phenyl)-1-(4-methoxy-benzyl)-7,8,8-trimethyl-1,2,4,5,6,7-hexahydro-4,7-methano-indazol-3-one], with 14 nM; and `CC1(C)[C@@H]2CC[C@@]1(C)c1c2c(=O)n(-c2ccc(F)cc2F)n1Cc1ccc(C(F)(F)F)cc1` [Example 103, (4S,7R)-2-(2,4-Difluoro-phenyl)-7,8,8-trimethyl-1-(4-trifluoromethyl-benzyl)-1,2,4,5,6,7-hexahydro-4,7-methano-indazol-3-one], with 11 nM. At human 11betaHSD1, `COc1ncccc1Cn1c2c(c(=O)n1-c1ccc(F)cc1F)[C@@H]1CC[C@@]2(C)C1(C)C` [Example 113, (4R,7S)-2-(2,4-Difluoro-phenyl)-1-(2-methoxy-pyridin-3-ylmethyl)-7,8,8-trimethyl-1,2,4,5,6,7-hexahydro-4,7-methano-indazol-3-one] showed an IC50 of 36 nM.

For `CC1(C)[C@H]2CC[C@]1(C)c1c2c(=O)n(-c2ccc(F)cc2Cl)n1Cc1ccccc1` [Example 120, (4R,7S)-1-Benzyl-2-(2-chloro-4-fluoro-phenyl)-7,8,8-trimethyl-1,2,4,5,6,7-hexahydro-4,7-methano-indazol-3-one], on human 11betaHSD1, the IC50 was found to be 18 nM.

In turn, `CC1(C)[C@H]2CC[C@]1(C)c1c2c(=O)n(-c2ccc(F)cc2Cl)n1Cc1ccc(F)cc1F` [Example 122, (4R,7S)-2-(2-Chloro-4-fluoro-phenyl)-1-(2,4-difluoro-benzyl)-7,8,8-trimethyl-1,2,4,5,6,7-hexahydro-4,7-methano-indazol-3-one] showed an IC50 at human 11betaHSD1 of 21 nM.

`CC1(C)[C@@H]2CC[C@@]1(C)c1c2c(=O)n(-c2ccc(F)cc2Cl)n1Cc1ccc(F)cc1F` [Example 123, (4S,7R)-2-(2-Chloro-4-fluoro-phenyl)-1-(2,4-difluoro-benzyl)-7,8,8-trimethyl-1,2,4,5,6,7-hexahydro-4,7-methano-indazol-3-one]: the IC50 at human 11betaHSD1 was found to be 9 nM. Turning to `Cn1c2c(c(=O)n1-c1cccc(Cl)c1Cl)[C@H]1CC[C@]2(C)C1(C)C` [Example 126, (4S,7R)-2-(2,3-Dichloro-phenyl)-1,7,8,8-tetramethyl-1,2,4,5,6,7-hexahydro-4,7-methano-indazol-3-one], the IC50 at human 11betaHSD1 was 6 nM. The same measure, in the same setting: then `Cn1c2c(c(=O)n1-c1cc(C(F)(F)F)ccc1F)[C@H]1CC[C@]2(C)C1(C)C` [Example 132, (4S,7R)-2-(2-Fluoro-5-trifluoromethyl-phenyl)-1,7,8,8-tetramethyl-1,2,4,5,6,7-hexahydro-4,7-methano-indazol-3-one], with 210 nM. Same read-out and setting: then `Cn1c2c(c(=O)n1-c1cc(F)ccc1C(F)(F)F)[C@H]1CC[C@]2(C)C1(C)C` [Example 133, (4S,7R)-2-(5-Fluoro-2-trifluoromethyl-phenyl)-1,7,8,8-tetramethyl-1,2,4,5,6,7-hexahydro-4,7-methano-indazol-3-one], with 21 nM; and `Cc1cccc(-n2c(=O)c3c(n2Cc2ccccc2)[C@@]2(C)CC[C@@H]3C2(C)C)c1C` [Example 137, (4R,7S)-1-Benzyl-2-(2,3-dimethyl-phenyl)-7,8,8-trimethyl-1,2,4,5,6,7-hexahydro-4,7-methano-indazol-3-one], with 4 nM. For `Cn1c2c(c(=O)n1-c1ccc3ccccc3c1)[C@H]1CC[C@]2(C)C1(C)C` [Example 144, (4S,7R)-1,7,8,8-Tetramethyl-2-naphthalen-2-yl-1,2,4,5,6,7-hexahydro-4,7-methano-indazol-3-one], the IC50 at human 11betaHSD1 was 24 nM.

Regarding `CC1(C)[C@H]2CC[C@]1(C)c1c2c(=O)n(-c2ccc3ccccc3c2)n1Cc1ccccc1` [Example 145, (4R,7S)-1-Benzyl-7,8,8-trimethyl-2-naphthalen-2-yl-1,2,4,5,6,7-hexahydro-4,7-methano-indazol-3-one], the IC50 at human 11betaHSD1 was 21 nM.

`Cc1nc(Cn2c(=O)c3c(n2Cc2ccccc2)[C@@]2(C)CC[C@@H]3C2(C)C)cs1` [Example 150, (4R,7S)-1-Benzyl-7,8,8-trimethyl-2-(2-methyl-thiazol-4-ylmethyl)-1,2,4,5,6,7-hexahydro-4,7-methano-indazol-3-one] gave a half-maximal inhibitory concentration (IC50) at human 11betaHSD1 of 208 nM.
